Tests used:
[1] = system: barnyardgrass; experiment: Test F flood (paddy) test; type: in vivo, Echinochloa crus-galli; settings: 21 d, scale 0-100
Source text: Three plastic pots (ca. 16-cm diameter) per rate were partially filled with sterilized Tama silt loam soil comprising a 35:50:15 ratio of sand, silt and clay and 2.6% organic matter. Separate plantings for each of the three pots were as follows. Seeds from the U.S. of monochoria (Monochoria vaginalis), sedge, umbrella (small-flower umbrella sedge, Cyperus difformis), bulrush, […] bulrush, Scirpus juncoides), and […] (purple […] coccinea), were planted into one 16-cm pot for each rate. Seeds from the U.S. of flatsedge, rice (rice flatsedge, Cyperus iria), sprangletop, Brdd. (bearded sprangletop, Leptochloa fascicularis), one stand of 9 or 10 water seeded rice seedlings (Rice, W.S. Jap, Oryza sativa cv. 'Japonica-[…]' or Rice, W.S. Ind, 'Indica'), and two stands of 3 or 4 seedlings of rice, transplanted (transplanted rice, Oryza sativa cv. 'Japonica-[…]') were planted into one 16-cm pot for each rate. Seeds from the U.S. of barnyardgrass (Echinochloa crus-galli), […] (common […], Alisma plantago-aquatica), and watergrass, late (late watergrass, Echinochloa oryzicola) were planted into one 16-cm pot for each rate. Plantings were sequential so that crop and weed species were at the 2.0 to 2.5-leaf stage at time of treatment. Potted plants were grown in a greenhouse with day/night temperature settings of 30/27° C., and supplemental balanced lighting was provided to maintain a 16-h photoperiod. Test pots were maintained in the greenhouse until test completion. At time of treatment, test pots were flooded to 3 cm above the soil surface, treated by application of test compounds directly to the paddy water, and then maintained at that water depth for the duration of the test. Effects of treatments on rice and weeds were visually evaluated by comparison to untreated controls after 21 d. Plant response ratings, summarized in Table F, are based on a scale of 0 to 100 where 0 is no effect and 100 is complete control. A dash (-) response means no test result.

[2] = system: Russian thistle; experiment: Test D pre-/postemergence herbicide test; type: in vivo, Salsola kali; settings: for Plant response rating: Postemergence, Russian Thistle, scale 0 to 100; for Plant response rating, Russian Thistle: Preemergence, scale 0 to 100 (0 no effect, 100 complete control)
Source text: (§1) Seeds of plant species selected from bluegrass (annual bluegrass, Poa annua), blackgrass (Alopecurus myosuroides), canarygrass (littleseed canarygrass, Phalaris minor), chickweed (common chickweed, Stellaria media), galium (catchweed bedstraw, Galium aparine), bromegrass, downy (downy bromegrass, Bromus tectorum), field poppy (Papaver rhoeas), field violet (Viola arvensis), foxtail, green (green foxtail, Setaria viridis), deadnettle (henbit deadnettle, Lamium amplexicaule), ryegrass, Italian (Italian ryegrass, Lolium multiflorum), kochia (Kochia scoparia), lambsquarters (Chenopodium album), oilseed rape (Brassica napus), pigweed (Amaranthus retroflexus), chamomile (scentless chamomile, Matricaria inodora), Russian thistle (Salsola kali), speedwell (bird's-eye speedwell, Veronica persica), barley, spring (spring barley, Hordeum vulgare), wheat, spring (spring wheat, Triticum aestivum), buckwheat, wild (wild buckwheat, Polygonum convolvulus), mustard, wild (wild mustard, Sinapis arvensis), oat, wild (wild oat, Avena fatua), radish, wild (wild radish, Raphanus raphanistrum), […]), barley, winter (winter barley, Hordeum vulgare), and wheat, winter (winter wheat, Triticum aestivum) were planted into a silt loam soil and treated preemergence with test chemicals formulated in a non-phytotoxic solvent mixture which included a surfactant. At the same time, these species were planted in pots containing Redi-Earth® planting medium (Scotts Company, 14111 Scottslawn Road, Marysville, Ohio 43041) comprising spaghnum peat moss, vermiculite, wetting agent and starter nutrients and treated with postemergence applications of the test chemicals formulated in the same manner. Plants ranged in height from 2 to 18 cm (1- to 4-leaf stage). Treated plants and controls were maintained in a controlled growth environment for 7 to 21 days after which time all species were compared to controls and visually evaluated. Plant response ratings, summarized in Table D, are based on a scale of 0 to 100 where 0 is no effect and 100 is complete control. A dash (-) response means no test result.

[3] = system: buckwheat, wild; experiment: Test D pre-/postemergence herbicide test; type: in vivo, Polygonum convolvulus; settings: for Plant response rating: Buckwheat, Wild, scale 0 to 100; for Plant response rating, Buckwheat, Wild: scale 0 to 100 (0 no effect, 100 complete control)
Source text: as §1

SMILES | Plant response rating, Barnyardgrass ([1]; 250 g ai/ha) | Plant response rating, Barnyardgrass ([1]; 500 g ai/ha) | Plant response rating ([2]; 16 g ai/ha) | Plant response rating ([2]; 31 g ai/ha) | Plant response rating ([2]; 62 g ai/ha) | Plant response rating ([2]; 125 g ai/ha) | Plant response rating ([2]; 250 g ai/ha) | Plant response rating ([3]; Postemergence, 16 g ai/ha) | Plant response rating ([3]; Postemergence, 31 g ai/ha) | Plant response rating ([3]; Postemergence, 62 g ai/ha) | Plant response rating ([3]; Postemergence, 125 g ai/ha) | Plant response rating ([3]; Postemergence, 250 g ai/ha) | Plant response rating, Buckwheat, Wild ([3]; Preemergence, 31 g ai/ha) | Plant response rating, Buckwheat, Wild ([3]; Preemergence, 62 g ai/ha) | Plant response rating ([3]; Preemergence, 250 g ai/ha) | Plant response rating, Barnyardgrass ([1]; 125 g ai/ha) | other results
O=C1NCC(c2cccc(C(F)(F)F)c2)C1C(=O)Nc1ccccc1F (racemic) [Compound 3] | 90 | 90 | – | – | – | – | – | – | – | – | – | – | – | – | – | – | –
O=C1NCC(c2ccc(F)c(F)c2)C1C(=O)Nc1cccc(F)c1 (racemic) [Compound 12] | – | – | 0 | 0 | 20 | 30 | 80 | 0 | 0 | 10 | 10 | 10 | 0 | 0 | 100 | – | Plant response rating, Russian Thistle ([2]; 31 g ai/ha): 0; Plant response rating, Russian Thistle ([2]; 62 g ai/ha): 0; Plant response rating, Russian Thistle ([2]; 125 g ai/ha): 0; Plant response rating, Russian Thistle ([2]; 250 g ai/ha): 0; Plant response rating, Russian Thistle ([2]; 16 g ai/ha): 0; Plant response rating, Buckwheat, Wild ([3]; Preemergence, 16 g ai/ha): 0; Plant response rating ([3]; Preemergence, 125 g ai/ha): 0
O=C1NCC(c2cc(F)c(F)c(F)c2)C1C(=O)Nc1ccccc1C(F)(F)F (racemic) [Compound 33] | – | – | 0 | 0 | 0 | 0 | 0 | 0 | 0 | 0 | 0 | 10 | – | – | – | – | –
O=C1NCC(c2cc(F)c(F)c(F)c2)C1C(=O)Nc1ccccc1F (racemic) [Compound 34] | – | – | 0 | 0 | 0 | 0 | 0 | 0 | 0 | 0 | 0 | 0 | – | – | – | – | –
O=C1NCC(c2cccc(C(F)(F)F)c2)C1C(=O)Nc1ccc(F)cc1F (racemic) [Compound 207] | 100 | 100 | – | – | – | – | – | – | – | – | – | – | 0 | 15 | 35 | 60 | Plant response rating, Buckwheat, Wild ([3]; Preemergence, 125 g ai/ha): 25
O=C1NCC(c2ccc(C(F)(F)F)c(F)c2)C1C(=O)Nc1cccc(F)c1F (racemic) [Compound 247] | 65 | 70 | – | – | – | – | – | – | – | – | – | – | – | – | – | 60 | Plant response rating, Barnyardgrass ([1]; 1000 g ai/ha): 70; Plant response rating, Barnyardgrass ([1]; 2000 g ai/ha): 75
O=C1NCC(c2cccc(C(F)(F)F)c2)C1C(=O)Nc1cccc(F)c1F (centres unmarked) [Compound 241] | – | – | – | – | – | – | – | – | – | – | – | – | 15 | 15 | 80 | – | Plant response rating, Buckwheat, Wild ([3]; Preemergence, 125 g ai/ha): 20
CN1CC(c2ccc(F)cc2)C(C(=O)Nc2cccc(F)c2F)C1=O (centres unmarked) [Compound 271] | 100 | 100 | – | – | – | – | – | – | – | – | – | – | – | – | – | 75 | Plant response rating, Barnyardgrass ([1]; 64 g ai/ha): 55

Reference: US10294202B2, “Pyrrolidinones as herbicides” (FMC Corporation, priority 2013, dated 2019)
